Assay results from patent US20190246647A1, “COMPOSITIONS AND RELATED METHODS FOR MODULATING ENDOSYMBIONTS” (Flagship Pioneering Innovations V, Inc., priority 2017, published 2019).
“Also recorded” adds a separate entry of the source. {Cy3} = Cy3 dye attached by azide-DBCO click chemistry

Tests used:
Myzus persicae [1] = test: Cy3-PNA in artificial diet: aphid survival; assay type: in vivo; conditions: 0.5 to 10 mg/L in artificial diet; paper example
Experimental: Cy3-PNA solutions are formulated with 0, 0.5, 1, 5 or 10 mg/L of Cy3-PNA from Example 11 in 10 mL of 0.5% sucrose and essential amino acids.
(§1) To prepare for the treatment, aphids are grown in a lab environment and medium. In a climate-controlled room (16 h light photoperiod; 60±5% RH; 20±2° C.), plants are grown in a mixture of vermiculite and perlite and are infested with aphids. To limit maternal effects or health differences between plants, 5-10 adults from different plants are distributed among 10 two-week-old plants, and allowed to multiply to high density for 5-7 days. For experiments, second and third instar aphids are collected from healthy plants and divided into treatments so that each treatment receives approximately the same number of individuals from each of the collection plants.
Wells of a 96-well plate are filled with 200 μl of artificial aphid diet (Febvay et al., Canadian Journal of Zoology 66(11):2449-2453, 1988) and the plate is covered with parafilm to make a feeding sachet. Artificial diet is either mixed with the solution of sterile water with 0.5% sucrose and essential amino acids only as a negative control, or mixed with Cy3-PNA solutions. Cy3-PNA solutions are mixed with artificial diet to obtain final concentrations between 0.5 to 10 mg/L. […]

[2] = tested on: Aphids (LSR-1 strain, Acyrthosiphon pisum); test: BCR-4 PNA leaf perfusion: aphid survival and development; assay type: in vivo; conditions: for effect on aphid development / effect on aphid mortality: leaf perfusion, vs water
Experimental: Aphids (LSR-1 strain, Acyrthosiphon pisum) were grown on fava bean plants (Vroma vicia faba from Johnny's Selected Seeds) in a climate-controlled incubator (16 h light/8 h dark photoperiod; 60±5% RH; 25±2° C.). Prior to being used for aphid rearing, fava bean plants were grown in potting soil at 24° C. with 16 h of light and 8 h of darkness. To limit maternal effects or health differences between plants, 5-10 adults from different plants were distributed among 10 two-week-old plants and allowed to multiply to high density for 5-7 days. For experiments, first and second instar aphids were collected from healthy plants and divided into two different treatment groups: 1) those allowed to feed on leaves perfused with water, and, 2) those allowed to feed on leaves perfused with a BCR-4 PNA solution in water.
For each leaf perfusion, approximately 1 ml of water (negative control) or a 1 uM BCR-4 PNA solution was injected into a fava bean leaf. The stem of the leaf was then placed in a 1.5 ml Eppendorf that was sealed with parafilm. The leaf stem was then placed into a deep petri dish (Fisher Scientific, Cat# FB0875711) and aphids were applied to the leaves of the plant and allowed to feed. Old leaves were replaced with new, freshly injected leaves every 2-3 days throughout the experiment. For each treatment, 60 aphids were placed onto each leaf. Aphids were monitored daily for survival and dead aphids were removed when they were discovered. In addition, the developmental stage (1st, 2nd, 3rd, 4th, and 5th instar) was determined daily throughout the experiment.

Aphids LSR-1, A. pisum = test: BCR-4 PNA microinjection: aphid survival and fecundity; assay type: in vivo, Acyrthosiphon pisum
Experimental: (§2) Microinjection was performed using NanoJet III Auto-Nanoliter Injector with an in-house pulled borosilicate needle (Drummond Scientific; Cat#3-000-203-G/XL). Aphids were transferred using a paint brush to a tubing system connected to vacuum which held them in place during the injection. The injection site was at the ventral thorax of the aphid. The injection solutions were water (negative control) or 321 ng/μl of BCR-4 PNA in water. The injection volume was 20 nl for adult (4th and 5th instar) aphids at a rate of 2 nl/sec. Each treatment group had approximately the same number of individuals injected from each of the collection plants. After injection, aphids were released into a petri dish onto fava bean leaves that had stems in an Eppendorf tube filled with 1 ml water. Survival and fecundity were monitored over the course of the experiment.
Aphids LSR-1 (which harbor only Buchnera), A. pisum were grown on fava bean plants (Vroma vicia faba from Johnny's Selected Seeds) in a climate-controlled incubator (16 h light/8 h dark photoperiod; 60±5% RH; 25±2° C.). Prior to being used for aphid rearing, fava bean plants were grown in potting soil at 24° C. with 16 h of light and 8 h of darkness. To limit maternal effects or health differences between plants, 5-10 adults from different plants were distributed among 10 two-week-old plants, and allowed to multiply to high density for 5-7 days. For experiments, fourth and fifth instar aphids were collected from healthy plants and divided into two treatment groups: 1) water (negative control) or 2) BCR-4 PNA in water.

BCR-4 [3] = test: BCR-4 PNA microinjection: BCR-4 expression by RT-qPCR; assay type: in vivo, Acyrthosiphon pisum; conditions: after 7 days
Experimental: as §2
Aphids LSR-1 (which harbor only Buchnera), A. pisum were grown on fava bean plants (Vroma vicia faba from Johnny's Selected Seeds) in a climate-controlled incubator (16 h light/8 h dark photoperiod; 60±5% RH; 25±2° C.). […]
After 7 days of treatment, RNA was extracted from the remaining aphids in each treatment group. […] RNA concentrations were measured using a nanodrop nucleic acid quantification. BCR-4 relative expression was measured by RT-qPCR. […] RT-qPCR data was analyzed using analytic (Thermo Fisher Scientific, QuantStudio Design and Analysis) software.

BCR-4 [4] = test: BCR-4 PNA leaf perfusion: BCR-4 expression by RT-qPCR; assay type: in vivo, Acyrthosiphon pisum; conditions: for effect on BCR-4 expression: day 7, vs water
Experimental: After 7 days of treatment, RNA was extracted from the remaining aphids in each treatment group. Briefly, the aphid body surface was sterilized by dipping the aphid into a 6% bleach solution for approximately 5 seconds. Aphids were then rinsed in sterile water and total RNA was extracted from each individual aphid using the RNA extraction kit (Qiagen miRNeasy kit) according to manufacturer's instructions. RNA concentrations were measured using a nanodrop nucleic acid quantification. BCR-4 relative expression was measured by RT-qPCR. The primers used were ApBCR-4F ([…]; SEQ ID NO: 107) and ApBCR-4R ([…]; SEQ ID NO: 108). The internal reference gene primers were for Actin (housekeeping gene). The forward sequence was […]; SEQ ID NO: 109 and the reverse sequence was […]; SEQ ID NO: 110. RT-qPCR was performed using a qPCR amplification ramp of 1.6 degrees C./s and the following conditions: 1) 48° C. for 30 min, 2) 95° C. for 10 minutes, 3) 95° C. for 15 seconds, 4) 60° C. for 1 minute, 5) repeat steps 3-4 40×, 6) 95° C. for 15 seconds, 7) 60° C. for 1 minute, 8) ramp change to 0.15 degrees C./s, 9) 95° C. for 1 second. RT-qPCR data was analyzed using analytic (Thermo Fisher Scientific, QuantStudio Design and Analysis) software.
At 7 post-treatment, RNA was extracted from live aphids and RT-pPCR was done as described above (see Microinjection Delivery Experimental Design) to quantify expression of BCR-4.

Buchnera = test: BCR-4 PNA leaf perfusion: Buchnera/aphid copies by qPCR; assay type: in vivo; conditions: for effect on Buchnera titers: vs water
Experimental: After 5 and 6 days of treatment, DNA was extracted from dead aphids from each treatment group. Briefly, the aphid body surface was sterilized by dipping the aphid into a 6% bleach solution for approximately 5 seconds. Aphids were then rinsed in sterile water and DNA was extracted from each individual aphid using a DNA extraction kit (Qiagen, DNeasy kit) according to manufacturer's instructions. DNA concentration was measured using a nanodrop nucleic acid quantification, and Buchnera and aphid DNA copy numbers were measured by qPCR. The primers used for Buchnera were Buch_groES_18F ([…]; SEQ ID NO: 101) and Buch_groES_98R ([…]; SEQ ID NO: 102) (Chong and Moran, 2016 PNAS). The primers used for aphid were ApEF1a 107F ([…]; SEQ ID NO: 103) and ApEF1a 246R ([…]; SEQ ID NO: 104) (Chong and Moran, 2016 PNAS). qPCR was performed using a qPCR amplification ramp of 1.6 degrees C./s and the following conditions: 1) 95° C. for 10 minutes, 2) 95° C. for 15 seconds, 3) 55° C. for 30 seconds, 4) repeat steps 2-3 40×, 5) 95° C. for 15 seconds, 6) 55° C. for 1 minute, 7) ramp change to 0.15 degrees C./s, 8) 95° C. for 1 second. qPCR data was analyzed using analytic (Thermo Fisher Scientific, QuantStudio Design and Analysis) software.

[5] = tested on: its target bacterial strains; conditions: cited from earlier work
Myzus persicae [6] = test: Bcr1 dsRNA in artificial diet: aphid survival; assay type: in vivo; conditions: 0.5 to 5 μg/ml in artificial diet; paper example
Experimental: dsRNA solutions are formulated with 0 (negative control), 0.5, 1, or 5 μg/mL of Bcr1 dsRNA from Example 7 in 10 mL of TE buffer with 0.5% sucrose and essential amino acids.
as §1, with “(16 hr” for “(16 h”
(§3) Wells of a 96-well plate are filled with 200 μl of artificial aphid diet (Febvay et al., Canadian Journal of Zoology 66(11):2449-2453, 1988) and the plate is covered with parafilm to make a feeding sachet. […]

Rhopalosiphum maidis = test: Bcr1 dsRNA in artificial diet: aphid survival; assay type: in vivo; conditions: 0.5 to 5 μg/ml in artificial diet; paper example
Experimental: dsRNA solutions are formulated with 0 (negative control), 0.5, 1, or 5 μg/ml of Bcr1 dsRNA from Example 2 in 10 mL of TE buffer with 0.5% sucrose and essential amino acids.
as §1, with “C.), fava bean” for “C.),”
as §3

[7] = vs water, listed as PNA to BCR-4

For “Cy3-gaatgcagctgc (antisense GAATGCAGCTGC; all peptide nucleic acid (PNA), 5' {Cy3}) [Bcr1 specific Cy3-PNA, antisense PNA against Bcr1 joined to Cy3 dye through click chemistry]”, the “survival rate of aphids vs control” value (Myzus persicae [1]) was “decreased”.

For “YGRKKRRQRRR-CGTACAATAATCTCATGG (PNA against BCR-4; UniProt P04608 47-57, looked up, fragment) [BCR-4 PNA, peptide nucleic acid (PNA) to BCR-4 fused to a cell penetrating peptide (Tat)]”, the “aphids in the 3rd instar stage” value ([2]; leaf perfusion 1 uM, day 2 post-treatment, first and second instar aphids) was 8%, the aphids alive ([2]; leaf perfusion 1 uM, day 7) was 30% and the “effect on aphid development” value [2] was “delayed aphid development”. For the same molecule, the “effect on aphid mortality” value [2] was “increased aphid death”, the “effect on aphid development” value ([2]; listed as PNA to BCR-4) was “slowed aphid development” and the “effect on aphid mortality” value ([2]; listed as PNA to BCR-4) was “increased aphid mortality”. The “offspring produced per adult” value (Aphids LSR-1, A. pisum; at 3 and 7 days post-treatment) was 4 offspring/adult, the “effect on aphid fecundity” value (Aphids LSR-1, A. pisum; vs water) was “slight decrease in aphid fecundity” and the “effect on aphid fecundity” value (Aphids LSR-1, A. pisum; [7]) was “decreased fecundity”. The “effect on aphid survival” value (Aphids LSR-1, A. pisum; [7]) was “slight decrease in survival; also recorded: decrease in insect survival”, the “expression of BCR-4, water-injected fold higher than BCR-4 PNA-injected” value (BCR-4 [3]; microinjection 20 nl of 321 ng/μl, 4th and 5th instar) was “approximately 2 fold” and the “effect on BCR-4 expression” value (BCR-4 [3]; microinjection, vs water) was “knockdown of BCR-4; also recorded: reduced BCR-4 expression”. The “effect on BCR-4 expression” value (BCR-4 [4]) was “reduction of BCR-4 expression”, the “effect on BCR-4 expression” value (BCR-4 [4]; listed as PNA to BCR-4) was “knocked down BCR-4 expression” and the “median transcript levels of BCR-4, fold lower than water” value (BCR-4 [4]; living aphids after 7 days) was “approximately 3 fold”. The “mean ratio Buchnera/aphid copies” value (Buchnera; dead aphids collected 5 and 6 days post-treatment) was “approximately 57”, the “effect on Buchnera titers” value (Buchnera) was “increased Buchnera titers” and the “effect on Buchnera titers” value (Buchnera; listed as PNA to BCR-4) was “misbalance in Buchnera titers”.

In the case of nisin, the “concentration showing antimicrobial activity” value [5] is listed as “single-digit nanomolar concentration”.

B1: Bcr1 dsRNA: dsRNA hairpin targeting Bcr1 gene (ACYPI32128), SEQ ID NO: 93 (nucleic acid, listed as Acyrthosiphon pisum)
chain: AUGAAACUGCUGCAUGGCUUUCUGAUUAUUAUGCUGACCAUGCAUCUGAGCAUUCAGUAUGCGUAUGGCGGCCCGUUUCUGACCAAAUAUCUGUGCGAUCGCGUGUGCCAUAAACUGUGCGGCGAUGAAUUUGUGUGCAGCUGCAUUCAGUAUAAAAGCCUGAAAGGCCUGUGGUUUCCGCAUUGCCCGACCGGCAAAGCGAGCGUGGUGCUGCAUAACUUUCUGACCAGCCCGUUUUUUUUUUCGGGCUGGUCAGAAAGUUAUGCAGCACCACGCUCGCUUUGCCGGUCGGGCAAUGCGGAAACCACAGGCCUUUCAGGCUUUUAUACUGAAUGCAGCUGCACACAAAUUCAUCGCCGCACAGUUUAUGGCACACGCGAUCGCACAGAUAUUUGGUCAGAAACGGGCCGCCAUACGCAUACUGAAUGCUCAGAUGCAUGGUCAGCAUAAUAAUCAGAAAGCCAUGCAGCAGUUUCAU
In the case of B1, the “survival rate of aphids vs control” value (Myzus persicae [6]) is reported as “decreased” and the “survival rate of aphids vs control” value (Rhopalosiphum maidis) is reported as “decreased”.
